Assay results: patent US20260209249A1, “NOVEL TRICYCLIC COMPOUND AS KRAS G12D INHIBITOR, AND USE THEREOF” (SK Biopharmaceuticals Co., priority 2022, published 2026)
pIC50: −log10 of the molar value.

Experiments:
[1] = molecular target: T1, GDP-KRAS G12D mutant protein (Homo sapiens, UniProt P01116, G12D); assay: Differential scanning fluorimetry (DSF) binding affinity to GDP-KRAS G12D mutant protein; settings: DSF thermal shift, 10 μM compound, 4 μg KRAS protein
T1 construct: purchased Daegu Gyeongbuk Medical Innovation Foundation (DGMIF), made to order
Outline: (§1)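 Each sample held 4 μg recombinant KRAS G12D (GDP- or GppNHp-bound) and 10 μM compound, incubated 30 min at room temperature before adding 2× SYPRO Orange. The GDP form was run in kit buffer, the GppNHp form in 50 mM HEPES pH 7.5. Melt was 25–99 °C at 0.05 °C/s (580/623 nm), reported as ΔTm versus no compound.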

[2] = molecular target: T2, GppNHp-KRAS G12D mutant protein (Homo sapiens, UniProt P01116, G12D); assay: Differential scanning fluorimetry (DSF) binding affinity to GppNHp-KRAS G12D mutant protein; settings: DSF thermal shift, 10 μM compound, 4 μg KRAS protein, 50 mM HEPES (pH 7.5)
T2 construct: purchased Daegu Gyeongbuk Medical Innovation Foundation (DGMIF), made to order
Outline: as §1

[3] = system: ERK phosphorylation (pERK) induced by KRAS G12D mutation; assay: Inhibitory activity against ERK phosphorylation (pERK) induced by KRAS G12D mutation, immunofluorescence assay in AsPC-1 cells; format: cell-based; settings: Homo sapiens, ASPC1, 3 h drug treatment, pERK (Thr202/Tyr204) signal normalized to DAPI
Outline: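 AsPC-1 cells attached 16 h, then treated 3 h with 3-fold dilutions from 10 μM top. Fixed, permeabilized, immunostained for pERK (Thr202/Tyr204) with Alexa 488 secondary; high-content imaging, signal normalized to DAPI and to DMSO, IC50 from four-parameter fit.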

[4] = system: KRAS G12D mutant pancreatic cancer cell line AsPC-1; assay: Cell viability assay using KRAS G12D mutant cells (AsPC-1, 3D culture, celltiter-glo 3D); format: cell-based; settings: Homo sapiens, ASPC1, 5th day after compound treatment
Outline: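 AsPC-1 cells in 3D culture, 1000 cells/well, treated next day with 1/5 serial dilutions from 10 μM or 50 μM, 1:1 v/v. Viability read by CellTiter-Glo 3D on day 5, normalized to DMSO (100%) and untreated backgrounds; IC50 from four-parameter sigmoidal fit.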

SMILES: C#Cc1c(F)ccc2cc(O)cc(-c3cc4nc(OCC5(CN6CCOCC6)CC5)nc(N5C[C@H]6CC[C@@H](C5)N6)c4n4ccnc34)c12 [Example 7, 4-(1-((1 R,5S)-3,8-diazabicyclo[3.2.1]octan-3-yl)-3-((1-(morpholinomethyl)cyclopropyl)methoxy)imidazo[1′,2′:1,6]pyrido[3,2-d]pyrimidin-6-yl)-5-ethynyl-6-fluoronaphthalen-2-ol]
- GDP-KRAS G12D (ΔTmD, ° C.) [1]: 8.57 °C
- GppNHp-KRAS G12D (ΔTmD, ° C.) [2]: 3.24 °C
- pIC50 [3]: 6.57
- pIC50 [4]: 6.96

SMILES: C#Cc1c(F)ccc2cc(O)cc(-c3cc4nc(OCC5(CN6CCC7(CC6)CC7(F)F)CC5)nc(N5C[C@H]6CC[C@@H](C5)N6)c4n4ccnc34)c12 [Example 9, 4-(1-((1R,5S)-3,8-diazabicyclo[3.2.1]octan-3-yl)-3-((1-((1,1-difluoro-6-azaspiro[2.5]octan-6-yl)methyl)cyclopropyl)methoxy)imidazo[1′,2′:1,6]pyrido[3,2-d]pyrimidin-6-yl)-5-ethynyl-6-fluoronaphthalen-2-ol]
- GDP-KRAS G12D (ΔTmD, ° C.) [1]: 8.87 °C
- GppNHp-KRAS G12D (ΔTmD, ° C.) [2]: 3.39 °C
- pIC50 [3]: 6.78
- pIC50 [4]: 7.30

SMILES: C#Cc1c(F)ccc2cc(O)cc(-c3c(F)c4nc(OCC5(CN6CCC7(CC6)CC7(F)F)CC5)nc(N5C[C@H]6CC[C@@H](C5)N6)c4c4cc(C)oc34)c12 [Example 59, 4-(1-((1R,5S)-3,8-diazabicyclo[3.2.1]octan-3-yl)-3-((1-((1,1-difluoro-6-azaspiro[2.5]octan-6-yl)methyl)cyclopropyl)methoxy)-5-fluoro-8-methylfuro[3,2-n]quinazolin-6-yl)-5-ethynyl-6-fluoronaphthalen-2-ol]
- GDP-KRAS G12D (ΔTmD, ° C.) [1]: 12.88 °C
- GppNHp-KRAS G12D (ΔTmD, ° C.) [2]: 6.06 °C
- pIC50 [3]: 7.27
- pIC50 [4]: 7.16

SMILES: C#Cc1c(F)ccc2cc(N)cc(-c3cc4nc(OC[C@@]56CCCN5C/C(=C\F)C6)nc(N5[C@@H]6CC[C@H]5CNC6)c4n4ccnc34)c12 [Example 38, 4-(1-((1R,5S)-3,8-diazabicyclo[3.2.1]octan-8-yl)-3-(((S,Z)-2-(fluoromethylene)tetrahydro-1H-pyrrolizin-7a(5H)-yl)methoxy)imidazo[1′,2′:1,6]pyrido[3,2-d]pyrimidin-6-yl)-5-ethynyl-6-fluoronaphthalen-2-amine]
- GDP-KRAS G12D (ΔTmD, ° C.) [1]: 9.61 °C
- GppNHp-KRAS G12D (ΔTmD, ° C.) [2]: 6.65 °C
- pIC50 [3]: 7.82
- pIC50 [4]: 7.92

SMILES: Cn1cc2c(n1)c(-c1cc(O)cc3ccc(F)c(F)c13)c(F)c1nc(OC[C@@]34CCCN3C[C@H](F)C4)nc(N3C[C@H]4CC[C@@H](C3)N4)c12 [Example 95, 4-(9-((1R,5S)-3,8-diazabicyclo[3.2.1]octan-3-yl)-5-fluoro-7-(((2R,7aS)-2-fluorotetrahydro-1H-pyrrolizin-7a(5H)-yl)methoxy)-2-methyl-2H-pyrazolo[4,3-f]quinazolin-4-yl)-5,6-difluoronaphthalen-2-ol]
- GDP-KRAS G12D (ΔTmD, ° C.) [1]: 11.83 °C
- GppNHp-KRAS G12D (ΔTmD, ° C.) [2]: 7.54 °C
- pIC50 [3]: 7.09
- pIC50 [4]: 6.58

SMILES: C#Cc1c(F)ccc2cc(O)cc(-c3c(F)c4nc(OC[C@@]56CCCN5C[C@H](F)C6)nc(N5C[C@H]6CC[C@@H](C5)N6)c4c4cn(C)nc34)c12 [Example 80, 4-(9-((1R,5S)-3,8-diazabicyclo[3.2.1]octan-3-yl)-5-fluoro-7-(((2R,7aS)-2-fluorotetrahydro-1H-pyrrolizin-7a(5H)-yl)methoxy)-2-methyl-2H-pyrazolo[4,3-n]quinazolin-4-yl)-5-ethynyl-6-fluoronaphthalen-2-ol]
- GDP-KRAS G12D (ΔTmD, ° C.) [1]: 14.81 °C
- GppNHp-KRAS G12D (ΔTmD, ° C.) [2]: 11.13 °C
- pIC50 [3]: 7.46
- pIC50 [4]: 7.34

SMILES: C#Cc1c(F)ccc2cc(O)cc(-c3cc4nc(OC[C@@]56CCCN5C[C@H](F)C6)nc(N5C[C@H]6CC[C@@H](C5)N6)c4c4cn(C)nc34)c12 [Example 69, 4-(9-((1R,5S)-3,8-diazabicyclo[3.2.1]octan-3-yl)-7-(((2R,7aS)-2-fluorotetrahydro-1H-pyrrolizin-7a(5H)-yl)methoxy)-2-methyl-2H-pyrazolo[4,3-f]quinazolin-4-yl)-5-ethynyl-6-fluoronaphthalen-2-ol]
- GDP-KRAS G12D (ΔTmD, ° C.) [1]: 11.68 °C
- GppNHp-KRAS G12D (ΔTmD, ° C.) [2]: 7.24 °C
- pIC50 [3]: 6.77
- pIC50 [4]: 6.72

SMILES: C#Cc1c(F)ccc2cc(O)cc(-c3cc4nc(OCC5(CN6CCC7(CC6)CC7(F)F)CC5)nc(N5C[C@H]6CC[C@@H](C5)N6)c4c4cn(C)nc34)c12 [Example 73, 4-(9-((1R,5S)-3,8-diazabicyclo[3.2.1]octan-3-yl)-7-((1-((1,1-difluoro-6-azaspiro[2.5]octan-6-yl)methyl)cyclopropyl)methoxy)-2-methyl-2H-pyrazolo[4,3-f]quinazolin-4-yl)-5-ethynyl-6-fluoronaphthalen-2-ol]
- GDP-KRAS G12D (ΔTmD, ° C.) [1]: 11.97 °C
- GppNHp-KRAS G12D (ΔTmD, ° C.) [2]: 5.60 °C
- pIC50 [3]: 7.31
- pIC50 [4]: 7.43

SMILES: C#Cc1c(F)ccc2cc(O)cc(-c3c(F)c4nc(OC[C@@]56CCCN5CC(=C(F)F)C6)nc(N5C[C@H]6CC[C@@H](C5)N6)c4c4cn(C)nc34)c12 [Example 90, 4-(9-((1R,5S)-3,8-diazabicyclo[3.2.1]octan-3-yl)-7-(((S)-2-(difluoromethylene)tetrahydro-1H-pyrrolizin-7a(5H)-yl)methoxy)-5-fluoro-2-methyl-2H-pyrazolo[4,3-f]quinazolin-4-yl)-5-ethynyl-6-fluoronaphthalen-2-ol]
- GDP-KRAS G12D (ΔTmD, ° C.) [1]: 16.27 °C
- GppNHp-KRAS G12D (ΔTmD, ° C.) [2]: 11.38 °C
- pIC50 [3]: 8.30
- pIC50 [4]: 8.40

SMILES: C#Cc1c(F)ccc2cc(O)cc(-c3cc4nc(OC[C@@]56CCCN5C/C(=C\F)C6)nc(N5[C@@H]6CC[C@H]5CNC6)c4n4ccnc34)c12 [Example 23, 4-(1-((1R,5S)-3,8-diazabicyclo[3.2.1]octan-8-yl)-3-(((S,Z)-2-(fluoromethylene)tetrahydro-1H-pyrrolizin-7a(5H)-yl)methoxy)imidazo[1′,2′:1,6]pyrido[3,2-d]pyrimidin-6-yl)-5-ethynyl-6-fluoronaphthalen-2-ol]
- GDP-KRAS G12D (ΔTmD, ° C.) [1]: 9.90 °C
- GppNHp-KRAS G12D (ΔTmD, ° C.) [2]: 6.94 °C
- pIC50 [3]: 7.60
- pIC50 [4]: 7.62

SMILES: C#Cc1c(F)ccc2cc(O)cc(-c3c(F)c4nc(OCC5(CN6CCC7(CC6)CC7(F)F)CC5)nc(N5C[C@H]6CC[C@@H](C5)N6)c4c4cn(C)nc34)c12 [Example 87, 4-(9-((1R,5S)-3,8-diazabicyclo[3.2.1]octan-3-yl)-7-((1-((1,1-difluoro-6-azaspiro[2.5]octan-6-yl)methyl)cyclopropyl)methoxy)-5-fluoro-2-methyl-2H-pyrazolo[4,3-f]quinazolin-4-yl)-5-ethynyl-6-fluoronaphthalen-2-ol]
- GDP-KRAS G12D (ΔTmD, ° C.) [1]: 14.94 °C
- GppNHp-KRAS G12D (ΔTmD, ° C.) [2]: 8.86 °C
- pIC50 [3]: 8.40
- pIC50 [4]: 7.96

SMILES: C#Cc1c(F)ccc2cc(O)cc(-c3cc4nc(OCC5(CN6CCOC[C@H]6C)CC5)nc(N5C[C@H]6CC[C@@H](C5)N6)c4n4ccnc34)c12 [Example 8, 4-(1-((1 R,5S)-3,8-diazabicyclo[3.2.1]octan-3-yl)-3-((1-(((R)-3-methylmorpholino)methyl)cyclopropyl)methoxy)imidazo[1′,2′:1,6]pyrido[3,2-d]pyrimidin-6-yl)-5-ethynyl-6-fluoronaphthalen-2-ol]
- GDP-KRAS G12D (ΔTmD, ° C.) [1]: 9.02 °C
- GppNHp-KRAS G12D (ΔTmD, ° C.) [2]: 3.39 °C
- pIC50 [3]: 6.83
- pIC50 [4]: 7.30

SMILES: C#Cc1c(F)ccc2cc(O)cc(-c3c(F)c4nc(OC[C@@]56CCCN5C/C(=C\F)C6)nc(N5C[C@H]6CC[C@@H](C5)N6)c4c4cn(C)nc34)c12 [Example 94, 4-(9-((1R,5S)-3,8-diazabicyclo[3.2.1]octan-3-yl)-5-fluoro-7-(((S,Z)-2-(fluoromethylene)tetrahydro-1H-pyrrolizin-7a(5H)-yl)methoxy)-2-methyl-2H-pyrazolo[4,3-f]quinazolin-4-yl)-5-ethynyl-6-fluoronaphthalen-2-ol]
- GDP-KRAS G12D (ΔTmD, ° C.) [1]: 17.46 °C
- GppNHp-KRAS G12D (ΔTmD, ° C.) [2]: 12.28 °C
- pIC50 [3]: 7.74
- pIC50 [4]: 7.85

SMILES: Cc1cc2c(o1)c(-c1cc(O)cc3ccccc13)cc1nc(OC[C@@]34CCCN3C[C@H](F)C4)nc(N3C[C@H]4CC[C@@H](C3)N4)c12 [Example 41, 4-(1-((1R,5S)-3,8-diazabicyclo[3.2.1]octan-3-yl)-3-(((2R,7aS)-2-fluorotetrahydro-1H-pyrrolizin-7a(5H)-yl)methoxy)-8-methylfuro[3,2-f]quinazolin-6-yl)naphthalen-2-ol]
- GDP-KRAS G12D (ΔTmD, ° C.) [1]: 5.46 °C
- GppNHp-KRAS G12D (ΔTmD, ° C.) [2]: 0.87 °C
- pIC50 [3]: 6.05
- pIC50 [4]: 5.99

SMILES: C#Cc1c(F)ccc2cc(N)cc(-c3c(F)c4nc(OC[C@@]56CCCN5C[C@H](F)C6)nc(N5C[C@H]6CC[C@@H](C5)N6)c4c4cn(C)nc34)c12 [Example 81, 4-(9-((1R,5S)-3,8-diazabicyclo[3.2.1]octan-3-yl)-5-fluoro-7-(((2R,7aS)-2-fluorotetrahydro-1H-pyrrolizin-7a(5H)-yl)methoxy)-2-methyl-2H-pyrazolo[4,3-n]quinazolin-4-yl)-5-ethynyl-6-fluoronaphthalen-2-amine]
- GDP-KRAS G12D (ΔTmD, ° C.) [1]: 10.04 °C
- GppNHp-KRAS G12D (ΔTmD, ° C.) [2]: 6.66 °C
- pIC50 [3]: 7.09
- pIC50 [4]: 6.55
